Ends that are not written are not given here.
Legend:
Format in all cases: cell-based
[1] = system: Escherichia coli ATCC BAA-2471 (NDM-1); conditions: ATCC BAA-2471
In short: (§1)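 CLSI broth microdilution in Mueller Hinton II broth with 0.002% polysorbate 80; 2-fold peptide dilutions from 32 mcg/mL top final concentration (SEQ ID NO:5 and 8 in DMSO, 2.5% final at first dilution). Incubated 35° C for 16 to 20 hrs; MIC = lowest concentration inhibiting visible growth.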

[2] = system: Escherichia coli ATCC 35218 (ESBL); conditions: ATCC 35218
In short: as §1

[3] = system: Streptococcus pneumoniae ATCC 49619 (QC); conditions: ATCC 49619
In short: as §1

[4] = system: Staphylococcus aureus ATCC 29213 (MSSA; QC); conditions: ATCC 29213
In short: as §1

[5] = system: Enterococcus faecalis ATCC 29212 (VSE; QC); conditions: ATCC 29212
In short: as §1

[6] = system: Pseudomonas aeruginosa ATCC 27853 (non-MDR; QC); conditions: ATCC 27853
In short: as §1

[7] = system: Staphylococcus aureus NRS382 (USA100; HA-MRSA); conditions: USA100
In short: as §1

[8] = system: Staphylococcus aureus ATCC 43300 (MRSA); conditions: ATCC 43300
In short: as §1

[9] = system: Escherichia coli ATCC 25922 (QC); conditions: ATCC 25922
In short: as §1

[10] = system: Enterococcus faecium ATCC 51559 (VRE); conditions: ATCC 51559
In short: as §1

[11] = system: Streptococcus agalactiae ATCC 13813
In short: as §1

[12] = system: Acinetobacter baumannii ATCC 19606 (non-MDR); conditions: Acinetobacter baumannii ATCC 19606 (non-MDR)
In short: as §1

[13] = system: Klebsiella pneumoniae ATCC BAA-1705 (KPC); conditions: ATCC BAA-1705
In short: as §1

[14] = system: Pseudomonas aeruginosa ATCC BAA-2109 (MDR); conditions: ATCC BAA-2109
In short: as §1

[15] = system: Streptococcus pyogenes ATCC 49399; conditions: ATCC 49399
In short: as §1

[16] = system: Enterococcus faecalis ATCC 700802 (V583 VRE); conditions: ATCC 700802
In short: as §1

“RRWVRRVRRVWRRVVRVVRRWVRR-NH2 (C-terminus assumed) [SEQ ID NO: 1]” showed an MIC [1] of 2 µg/mL, an MIC [2] of 8 µg/mL and an MIC [3] of 16 µg/mL. For the same substance, the MIC [4] was 8 µg/mL, the MIC [5] was 8 µg/mL and the MIC [6] was 8 µg/mL. For the same substance, the MIC [7] was 4 µg/mL, the MIC [8] was 4 µg/mL and the MIC [9] was 4 µg/mL. For the same substance, the MIC [10] was 2 µg/mL, the MIC [11] was 8 µg/mL and the MIC [12] was 2 µg/mL. It also gave an MIC [13] of 8 µg/mL, an MIC [14] of 4 µg/mL and an MIC [15] of 8 µg/mL. For the same substance, the MIC [16] was 4 µg/mL.

Source: patent publication US20220249599A1, “TREATMENT OF IMPLANTS WITH ENGINEERED ANTIMICROBIAL AMPHIPHILIC PEPTIDES” (priority 2018, published 2022)
